According to patent US4436751A, “Nitrobenzyl monates antibacterial compounds” (Beecham Group Limited, priority 1980, dated 1984):
≈ marks a conversion by molar mass, not a printed value. Where two headings read alike, the source gives them in different places.

How the values were obtained:
Assay type in all cases: cell-based
M. suipneumoniae JF 435 = test: Anti-mycoplasmal MIC in vitro, Friis broth agarose (Table 1); conditions: Mesomycoplasma hyopneumoniae, JF435, 144 h
M. suipneumoniae HR(2) = test: as above; conditions: Mesomycoplasma hyopneumoniae, 144 h
M. suipneumoniae Str. 11 = test: as above; conditions: Mesomycoplasma hyopneumoniae
[1] = test system: M. suipneumoniae J2206/183b; test: as above; conditions: Mesomycoplasma hyopneumoniae, 144 h
[2] = test system: M. suipneumoniae PW/C/210; test: as above; conditions: Mesomycoplasma hyopneumoniae, 144 h
M. suipneumoniae LABER = test: as above; conditions: Mesomycoplasma hyopneumoniae, 144 h
M. suipneumoniae OCD 1 = test: as above; conditions: Mesomycoplasma hyopneumoniae, OCD1, 144 h
M. suipneumoniae TAM 6N = test: as above; conditions: Mesomycoplasma hyopneumoniae, TAM6N, 144 h
[3] = test system: M. suipneumoniae ATCC 25095; test: as above; conditions: Mesomycoplasma hyopneumoniae, ATCC25095, 144 h
[4] = test system: M. suipneumoniae NCTC 10110; test: as above; conditions: Mesomycoplasma hyopneumoniae, NCTC10110, 144 h
M. hyorhinis ATCC 25021 = test: as above; conditions: Mesomycoplasma hyorhinis, ATCC25021, 144 h
M. bovis RCTC 10131 = test: microbe, parasite or virus in culture; conditions: RCTC10131, 144 h
M. dispar RCTC 10125 = test: Anti-mycoplasmal MIC in vitro, Friis broth agarose (Table 1); conditions: 144 h
[5] = test system: Strep. suis (group D) SPS11; test: Veterinary bacteria MIC, Diagnostic Sensitivity Test Agar (Table 2); conditions: Streptococcus suis
Procedure: The values were determined using a two fold serial dilutions in Diagnostic Sensitivity Test Agar with an inoculum of 10^4 organisms and incubation for 18 hours at 37° C.

Bacillus subtilis 6633 = test: Human bacteria MIC, nutrient agar with chocolated horse blood (Table 3)
Procedure: (§1) The values were determined by serial dilutions in nutrient agar with 5% chocolated horse blood after incubations for 18 hours at 37° C.

[6] = test system: Corynebacterium xerosis 9755; test: as above
Procedure: as §1

E. Coli NCTC 10418 = test: as above; conditions: Escherichia coli
Procedure: as §1

[7] = test system: Haemophilus influenzae Q1; test: as above
Procedure: as §1

K. aerogenes A = test: as above; conditions: Klebsiella aerogenes
Procedure: as §1

P. mirabilis 889 = test: as above
Procedure: as §1

[8] = test system: Pasteurella multocida 1633; test: as above
Procedure: as §1

[9] = test system: Ps. aeruginosa NCTC 10662; test: as above; conditions: Pseudomonas aeruginosa
Procedure: as §1

Sarcina lutea 8340 = test: as above
Procedure: as §1

Staph. aureus Oxford = test: as above; conditions: Staphylococcus aureus
Procedure: as §1

Staph. aureus Russell = test: as above; conditions: Staphylococcus aureus
Procedure: as §1

Staph. aureus W2827 = test: as above; conditions: Staphylococcus aureus
Procedure: as §1

Strep. faecalis 1 = test: as above
Procedure: as §1

[10] = test system: Strep. pyogenes R80/421-A; test: as above; conditions: Streptococcus pyogenes
Procedure: as §1

With C/C(=C\C(=O)OCc1cccc([N+](=O)[O-])c1)CC1OCC(CC2OC2C(C)C(C)O)C(O)C1O (centres unmarked) [Example 2, m-nitrobenzyl monate A] the MIC (M. suipneumoniae JF 435; M. suipneumoniae JF 435, in vitro, 6 days 37° C., read-out: MIC) was 0.025 µg/mL (≈ 0.0521 µM), the MIC (M. suipneumoniae HR(2); M. suipneumoniae HR(2), in vitro, 6 days 37° C., read-out: MIC) was 0.025 µg/mL (≈ 0.0521 µM) and the MIC (M. suipneumoniae Str. 11; 144 h, M. suipneumoniae Str. 11, in vitro, 6 days 37° C., read-out: MIC) was 0.025 µg/mL (≈ 0.0521 µM). It also gave an MIC ([1]; M. suipneumoniae J2206/183b, in vitro, 6 days 37° C., read-out: MIC) of 0.025 µg/mL (≈ 0.0521 µM), an MIC ([2]; M. suipneumoniae PW/C/210, in vitro, 6 days 37° C., read-out: MIC) of no more than 0.01 µg/mL and an MIC (M. suipneumoniae LABER; M. suipneumoniae LABER, in vitro, 6 days 37° C., read-out: MIC) of 0.025 µg/mL (≈ 0.0521 µM). For the same molecule, the MIC (M. suipneumoniae OCD 1; M. suipneumoniae OCD 1, in vitro, 6 days 37° C., read-out: MIC) was 0.025 µg/mL (≈ 0.0521 µM), the MIC (M. suipneumoniae TAM 6N; M. suipneumoniae TAM 6N, in vitro, 6 days 37° C., read-out: MIC) was 0.025 µg/mL (≈ 0.0521 µM) and the MIC [3] was 0.025 µg/mL (≈ 0.0521 µM). It also gave an MIC [4] of 0.025 µg/mL (≈ 0.0521 µM), an MIC (M. hyorhinis ATCC 25021; M. hyorhinis ATCC 25021, in vitro, 6 days 37° C., read-out: MIC) of no more than 0.01 µg/mL and an MIC (M. bovis RCTC 10131) of no more than 0.01 µg/mL. It also gave an MIC (M. dispar RCTC 10125; M. dispar RCTC 10125, in vitro, 6 days 37° C., read-out: MIC) of 0.01 µg/mL (≈ 0.0209 µM), an MIC ([5]; Strep. suis (group D) SPS11, DST Agar, 10^4 organisms, 18 hours 37° C., read-out: MIC) of 5 µg/mL (≈ 10.4 µM) and an MIC (Bacillus subtilis 6633; Bacillus subtilis 6633, nutrient agar 5% chocolated horse blood, 18 hours 37° C., read-out: MIC) of 5 µg/mL (≈ 10.4 µM). It also gave an MIC ([6]; Corynebacterium xerosis 9755, nutrient agar 5% chocolated horse blood, 18 hours 37° C., read-out: MIC) greater than 100 µg/mL, an MIC (E. Coli NCTC 10418; NCTC10418, E. coli NCTC 10418, nutrient agar 5% chocolated horse blood, 18 hours 37° C., read-out: MIC) greater than 100 µg/mL and an MIC ([7]; Haemophilus influenzae Q1, nutrient agar 5% chocolated horse blood, 18 hours 37° C., read-out: MIC) of 2.5 µg/mL (≈ 5.21 µM). It also gave an MIC (K. aerogenes A; K. aerogenes A, nutrient agar 5% chocolated horse blood, 18 hours 37° C., read-out: MIC) greater than 100 µg/mL, an MIC (P. mirabilis 889; Proteus mirabilis, P. mirabilis 889, nutrient agar 5% chocolated horse blood, 18 hours 37° C., read-out: MIC) greater than 100 µg/mL and an MIC ([8]; Pasteurella multocida 1633, nutrient agar 5% chocolated horse blood, 18 hours 37° C., read-out: MIC) of 10 µg/mL (≈ 20.9 µM). The MIC ([9]; NCTC10662, Ps. aeruginosa NCTC 10662, nutrient agar 5% chocolated horse blood, 18 hours 37° C., read-out: MIC) was greater than 100 µg/mL, the MIC (Sarcina lutea 8340; Micrococcus luteus, Sarcina lutea 8340, nutrient agar 5% chocolated horse blood, 18 hours 37° C., read-out: MIC) was greater than 100 µg/mL and the MIC (Staph. aureus Oxford; Staph. aureus Oxford, nutrient agar 5% chocolated horse blood, 18 hours 37° C., read-out: MIC) was 10 µg/mL (≈ 20.9 µM). The MIC (Staph. aureus Russell; Staph. aureus Russell, nutrient agar 5% chocolated horse blood, 18 hours 37° C., read-out: MIC) was 10 µg/mL (≈ 20.9 µM), the MIC (Staph. aureus W2827; Staph. aureus W2827, nutrient agar 5% chocolated horse blood, 18 hours 37° C., read-out: MIC) was 25 µg/mL (≈ 52.1 µM) and the MIC (Strep. faecalis 1; Enterococcus faecalis, Strep. faecalis 1, nutrient agar 5% chocolated horse blood, 18 hours 37° C., read-out: MIC) was greater than 100 µg/mL. For the same molecule, the MIC ([10]; Strep. pyogenes R80/421-A, nutrient agar 5% chocolated horse blood, 18 hours 37° C., read-out: MIC) was 2.5 µg/mL (≈ 5.21 µM).

In the case of C/C(=C\C(=O)OCc1ccc([N+](=O)[O-])cc1[N+](=O)[O-])CC1OCC(CC2OC2C(C)C(C)O)C(O)C1O (centres unmarked) [Example 10, 2,4-dinitrobenzyl monate A], the MIC (M. suipneumoniae JF 435) is reported as 1 µg/mL (≈ 1.91 µM), the MIC (M. suipneumoniae HR(2)) is reported as 1 µg/mL (≈ 1.91 µM) and the MIC (M. suipneumoniae Str. 11; STR.11, 144 h) is reported as 0.5 µg/mL (≈ 0.953 µM). The MIC ([1]; J2206/183B) was 1 µg/mL (≈ 1.91 µM), the MIC [2] was 0.5 µg/mL (≈ 0.953 µM) and the MIC (M. suipneumoniae LABER) was 0.5 µg/mL (≈ 0.953 µM). The MIC (M. suipneumoniae OCD 1) was 1 µg/mL (≈ 1.91 µM), the MIC (M. suipneumoniae TAM 6N) was 1 µg/mL (≈ 1.91 µM) and the MIC [3] was 0.5 µg/mL (≈ 0.953 µM). The MIC [4] was 1 µg/mL (≈ 1.91 µM), the MIC (M. hyorhinis ATCC 25021) was 0.5 µg/mL (≈ 0.953 µM) and the MIC (M. bovis RCTC 10131) was no more than 0.01 µg/mL. For the same molecule, the MIC (M. dispar RCTC 10125) was 0.25 µg/mL (≈ 0.477 µM), the MIC ([5]; 18 h) was 5 µg/mL (≈ 9.53 µM) and the MIC (Bacillus subtilis 6633; Bacillus subtilis, 6633, 18 h) was 0.25 µg/mL (≈ 0.477 µM). For the same molecule, the MIC ([6]; Corynebacterium xerosis, 9755, 18 h) was greater than 100 µg/mL, the MIC (E. Coli NCTC 10418; NCTC10418, 18 h) was greater than 100 µg/mL and the MIC ([7]; Haemophilus influenzae, Q1, 18 h) was 0.5 µg/mL (≈ 0.953 µM). It also gave an MIC (K. aerogenes A; 18 h) greater than 100 µg/mL, an MIC (P. mirabilis 889; Proteus mirabilis, 889, 18 h) greater than 100 µg/mL and an MIC ([8]; Pasteurella multocida, 1633, 18 h) of 2.5 µg/mL (≈ 4.77 µM). The MIC ([9]; NCTC10662, 18 h) was greater than 100 µg/mL, the MIC (Sarcina lutea 8340; Micrococcus luteus, 8340, 18 h) was greater than 100 µg/mL and the MIC (Staph. aureus Oxford; 18 h) was 1 µg/mL (≈ 1.91 µM). For the same molecule, the MIC (Staph. aureus Russell; 18 h) was 2.5 µg/mL (≈ 4.77 µM), the MIC (Staph. aureus W2827; W2827, 18 h) was 2.5 µg/mL (≈ 4.77 µM) and the MIC (Strep. faecalis 1; Enterococcus faecalis, 1, 18 h) was greater than 100 µg/mL. It also gave an MIC ([10]; R80/421A, 18 h) of 0.25 µg/mL (≈ 0.477 µM).
